Results as given in US20210052598A1, “COMPOSITIONS AND METHODS FOR TREATING CANCER” (Beth Israel Deaconess Medical Center, Inc., priority 2018, published 2021).
“Also recorded” adds a separate entry of the source. Where a SMILES comes first, the peptide text is derived from it. The star is where a group is joined. Cbz = O=C(OCc1ccccc1)*

How the values were obtained:
[1] = tested on: IDH1 and IDH2; test: Immunoblot of IDH1 and IDH2 after MG132 or MLN4924, RWPE1 cells; format: cell-based; settings: 10 μM for 8 hours
Experimental: RWPE1 cells were incubated with 10 μM MG132 or MLN4924 for 8 hours, followed by immunoblot analysis of IDH1 and IDH2. FIG. 16B are immunoblots showing that IDH1 specifically interacts with Cullin 1 in cells. Immunoblot analysis of immunoprecipitates (IP) and whole cell lysates (WCL) derived from HEK293 cells transfected with Flag-IDH1 and the indicated Myc-tagged Cullins for 48 hours. FIG. 16C are immunoblots showing that IDH1 specifically interacts with two F-box proteins, Skp2, and to a lesser extent, Fbw4, in cells. Immunoblot analysis of IP and WCL derived from HEK293 cells transfected with Flag-IDH1 and the indicated CMV-GST-tagged F-box proteins for 48 hours. FIG. 16D are immunoblots showing depletion of SKP2 in HeLa cells leads to accumulated IDH1. […] The labeled glycolytic intermediates were measured using HPLC-MS. n=3, * p<0.05, ** p<0.01, ***p<0.001. […] The labeled TCA cycle intermediates were measured using HPLC-MS. n=3, * p<0.05, ** p<0.01, *** p<0.001.
(§1) Cells were lysed in EBC buffer (50 mM Tris pH 7.5, 120 mM NaCl, 0.5% NP-40) supplemented with protease inhibitors (cOmplete Mini, Roche) and phosphatase inhibitors (phosphatase inhibitor cocktail set I and II, Calbiochem). The protein concentrations of the lysates were measured using the Bio-Rad protein assay reagent on a Beckman Coulter DU-800 spectrophotometer. […]

[2] = tested on: HAP1 cells; test: Seahorse XF24 extracellular acidification rate (ECAR) analysis, HAP1 cells; format: cell-based, human; settings: 1 μM for 24 hours
Experimental: (§2) LNCaP cells were treated with 0, 1, 3, 10 or 30 μM SKPin C1 for 24 hours, harvested for immunoblot analysis of indicated proteins. […] 22Rv1 cells were treated with 10 μM SKPin C1 for 24 hours, harvested for fraction of cytoplasm (C), mitochondria (M), and nuclei (N), followed by immunoblot analysis of indicated proteins. FIG. 11C is a graph showing depletion of endogenous ID111 or IDH2 abolishes the effect of SKPin C1 on OCR. HAP1-IDH1^−/−, IDH2^−/− and parental cells were treated with 3 μM SKPin C1 for 24 hours, followed by OCR analysis by Seahorse XF 24 analyzer. The concentration of oligomycin, FCCP and antimycin A are 1 μM, 0.6 μM and 3 μM, respectively (mean±s.e.m, n=3). […] HAP1-Skp2^+/+ and Skp2^−/− cells were treated with indicated SKPin C1 for 24 hours, followed by immunoblot analysis for indicated proteins. […] Statistical analysis, ** p<0.01. […] Statistical analysis, * p<0.05, ** p<0.01. […] HAP1-Skp2^+/+ and Skp2^−/− cells were treated with 1 μM SKPin C1 for 24 hours, followed by ECAR analysis by Seahorse XF 24 analyzer. […] HAP1-Skp2^+/+ and Skp2^−/− cells were treated with 1 μM SKPin C1 for 24 hours, followed by OCR analysis by Seahorse XF 24 analyzer. […]
(§3) Oxygen consumption rate (OCR) and extracellular acidification rate (ECAR) were measured using Seahorse XF24 analyzer (Boston, Mass., USA). […]

[3] = tested on: 22-Rv1 cells; test: Colony formation assay, 22-Rv1 cells; format: cell-based, human; settings: 22-Rv1, 1500 cell/well, 0, 0.1, 0.3, or 1 μM for 7 days, fresh media another 3 weeks
Experimental: (§4) 22-Rv1 cells were treated with 0, 1, 3, 10, or 30 μM SKPin C1 for 24 hours, and then harvested for immunoblot analysis. […] LNCaP and 22-Rv1 cells were plated in 6-well plate (1500 cell/well), treated with 0, 0.1, 0.3, or 1 μM Skin C1 for 7 days, and changed to fresh media for another 3 weeks. […] HAP1-IDH1^−/−, HAP1-IDH2^−/− and parental cells were treated with 3 μM SKPin C1 for 24 hours, followed by OCR analysis by Seahorse XF 24 analyzer. * p<0.05.
(§5) Cells were cultured in 10% FBS containing DMEM or RPMI-1640 media before plating into 6-well plate at 10,000 cells (3,000 cells for HeLa) per well. Ten days later, cells were fixed with 10% acetic acid/10% methanol for 10 min, stained with 0.4% crystal violet/20% ethanol, followed by counting the colony numbers. For soft agar assays, cells were seeded in 0.4% low-melting-point agarose in DMEM or RPMI-1640 with 10% FBS at 100,000 per well (30,000 cells for HeLa), layered onto 0.8% agarose in DMEM or RPMI-1640 with 10% FBS. The plates were kept in the cell culture incubator for 3-4 weeks after which the cells were stained with iodonitrotetrazolium chloride and colonies were counted.

[4] = tested on: HAP1 cells; test: Seahorse XF24 oxygen consumption rate (OCR) analysis, HAP1 cells; format: cell-based, human
Experimental: as §2, §3

[5] = tested on: IDH1 and IDH2; test: Immunoblot of IDH1 and IDH2 in HAP1-Skp2+/+ and Skp2-/- cells; format: cell-based, human; settings: 24 hours
Experimental: (§6) LNCaP cells were treated with 0, 1, 3, 10 or 30 μM SKPin C1 for 24 hours, harvested for immunoblot analysis of indicated proteins. […] 22Rv1 cells were treated with 10 μM SKPin C1 for 24 hours, harvested for fraction of cytoplasm (C), mitochondria (M), and nuclei (N), followed by immunoblot analysis of indicated proteins. FIG. 11C is a graph showing depletion of endogenous ID111 or IDH2 abolishes the effect of SKPin C1 on OCR. HAP1-IDH1^−/−, IDH2^−/− and parental cells were treated with 3 μM SKPin C1 for 24 hours, followed by OCR analysis by Seahorse XF 24 analyzer. The concentration of oligomycin, FCCP and antimycin A are 1 μM, 0.6 μM and 3 μM, respectively (mean±s.e.m, n=3). […] HAP1-Skp2^+/+ and Skp2^−/− cells were treated with indicated SKPin C1 for 24 hours, followed by immunoblot analysis for indicated proteins. […] Statistical analysis, ** p<0.01. […] Statistical analysis, * p<0.05, ** p<0.01. […]
as §1

[6] = tested on: IDH1 and IDH2; test: Immunoblot of IDH1 and IDH2 after SKPin C1 treatment, 22-Rv1 cells; format: cell-based, human; settings: 22-Rv1 cells, 0, 1, 3, 10, or 30 μM for 24 hours
Experimental: as §4
HeLa and HCT116 cells were used for synchronization. HeLa cells, which have low endogenous Skp2 activity, were used for ectopic expression-based degradation assays. HEK293 cell line was used for ubiquitination assays and co-IP assays to define the interaction between two ectopically expressed proteins, which is the most frequently used cell line for this type of experiment. Human prostate cancer cells, DU145, PC3, LNCaP, VCaP, 22Rv1 and C4-2 were used for compared endogenous Skp2 and IDH1 levels, as well as Skp2 knockdown and Skp2 overexpression. […]
as §1

[7] = tested on: LNCaP cells; test: Colony formation assay, LNCaP cells; format: cell-based, human; settings: 1500 cell/well, 0, 0.1, 0.3, or 1 μM for 7 days, fresh media another 3 weeks
Experimental: as §4, §5

[8] = tested on: IDH1 and IDH2; test: Immunoblot of IDH1 and IDH2 after SKPin C1 treatment, LNCaP cells; format: cell-based, human; settings: LNCaP cells, 0, 1, 3, 10 or 30 μM for 24 hours
Experimental: as §6, §1

[9] = tested on: IDH1 and IDH2; test: Fractionation of cytoplasm, mitochondria and nuclei with immunoblot, 22Rv1 cells; format: cell-based, human; settings: 10 μM for 24 hours
Experimental: LNCaP cells were treated with 0, 1, 3, 10 or 30 μM SKPin C1 for 24 hours, harvested for immunoblot analysis of indicated proteins. […] 22Rv1 cells were treated with 10 μM SKPin C1 for 24 hours, harvested for fraction of cytoplasm (C), mitochondria (M), and nuclei (N), followed by immunoblot analysis of indicated proteins. FIG. 11C is a graph showing depletion of endogenous ID111 or IDH2 abolishes the effect of SKPin C1 on OCR. HAP1-IDH1^−/−, IDH2^−/− and parental cells were treated with 3 μM SKPin C1 for 24 hours, followed by OCR analysis by Seahorse XF 24 analyzer. The concentration of oligomycin, FCCP and antimycin A are 1 μM, 0.6 μM and 3 μM, respectively (mean±s.e.m, n=3). […] HAP1-Skp2^+/+ and Skp2^−/− cells were treated with indicated SKPin C1 for 24 hours, followed by immunoblot analysis for indicated proteins. […] Statistical analysis, ** p<0.01. […] Statistical analysis, * p<0.05, ** p<0.01. […] HAP1-Skp2^+/+ and Skp2^−/− cells were treated with 1 μM SKPin C1 for 24 hours, followed by ECAR analysis by Seahorse XF 24 analyzer. […] HAP1-Skp2^+/+ and Skp2^−/− cells were treated with 1 μM SKPin C1 for 24 hours, followed by OCR analysis by Seahorse XF 24 analyzer. The concentration of oligomycin, FCCP and antimycin A are 1 μM, 0.6 μM and 3 μM, respectively (mean±s.e.m, n=3, ** p<0.01, *** p<0.001).
Cells were harvested and subjected to fractionation of cytoplasm (C), mitochondria (M), and nuclei (N) using Cell Fractionation kit (ab109719, Abcam). All fractions and the whole cell lysate (WCL) were subjected to immunoblot analysis for the indicated proteins, with tubulin, citrate synthase, and Histone H3 as markers of cytoplasm, mitochondria, and nucleus, respectively.

Compound | IDH1 and IDH2 protein abundance (immunoblot) [1] | Effect on ECAR in HAP1-Skp2+/+ and Skp2-/- cells [2] | Colony growth [3] | Effect on OCR in HAP1-Skp2+/+ and Skp2-/- cells ([4]; 1 μM for 24 hours) | Effect on OCR in HAP1-IDH1-/-, HAP1-IDH2-/- and parental cells ([4]; 3 μM for 24 hours) | Effect on IDH1 and IDH2 in HAP1-Skp2+/+ and Skp2-/- cells [5] | IDH1 and IDH2 protein abundance (immunoblot) [6] | Colony growth [7] | IDH1 and IDH2 protein abundance (immunoblot) [8] | IDH1 localization after treatment [9] | IDH2 localization after treatment [9] | IDH1 and IDH2 protein abundance in cell fractions ([9]; cytoplasm/mitochondria/nuclei fractions)
CC(C)C[C@@H](C=O)NC(=O)[C@H](CC(C)C)NC(=O)[C@H](CC(C)C)NC(=O)OCc1ccccc1 [MG132] (Cbz-Leu-Leu-Leu-aldehyde) | elevated; also recorded: accumulation of IDH1 and IDH2 |  |  |  |  |  |  |  |  |  |  | 
NS(=O)(=O)OC[C@@H]1C[C@@H](n2ccc3c(N[C@H]4CCc5ccccc54)ncnc32)C[C@@H]1O [MLN4924] | elevated; also recorded: accumulation of IDH1 and IDH2 |  |  |  |  |  |  |  |  |  |  | 
O=C(O)COc1ccc(Br)cc1/C=C1\SC(=S)N(Cc2cccnc2)C1=O [SKPin C1] |  | depletion of Skp2 abolishes the effect of SKPin C1 on ECAR | blocks the colony growth | depletion of Skp2 abolishes the effect of SKPin C1 on OCR | depletion of endogenous IDH1 or IDH2 abolishes the effects of SKPin C1 on OCR | depletion of Skp2 abolishes the effect of SKPin C1 on IDH1 and IDH2 | significantly stabilized both IDH1 and IDH2; also recorded: robust accumulation of IDH1 and IDH2 | blocks the colony growth | significantly stabilized both IDH1 and IDH2; also recorded: accumulated protein abundance of IDH1 and IDH2 | mainly localized in the cytoplasmic fraction regardless of SKPin C1 treatment | detected in the cytoplasmic fraction | accumulated protein abundance of IDH1 and IDH2 in cytoplasm
